Values after ≈ are worked out from the molar mass of the structure shown. Values joined by “and” are separate entries in the source; they are usually repeats but may differ in a detail not shown here. Equal values may be shown once. Read-outs that look alike come from different tables or passages of the source. Where a SMILES comes first, the peptide text is derived from it. [ ]: non-standard residue; d: D form. NMeLeu(5-OH,4R) = CN[C@@H](C[C@@H](C)CO)C(=O)O; Phe(βR-OMe) = CO[C@H](c1ccccc1)[C@H](N)C(=O)O; Trp(1-Me) = Cn1cc(C[C@H](N)C(=O)O)c2ccccc21; NMeL = CN[C@@H](CC(C)C)C(=O)O; Pra = C#CC[C@H](N)C(=O)O
Columns and labels:
[1] = system: non-replicating cells of Mtb H37Rv; assay type: cell-based, Mycobacterium tuberculosis; conditions: three replicate columns
[2] = target: ClpC1-NTD substrate, M. tuberculosis ClpC1P1P2 (Mycobacterium tuberculosis, UniProt P9WPC9); experiment: biochemical; assay type: biochemical; conditions: Mtb
ClpC1-NTD substrate, M. tuberculosis ClpC1P1P2, sequence (P9WPC5 whole entry): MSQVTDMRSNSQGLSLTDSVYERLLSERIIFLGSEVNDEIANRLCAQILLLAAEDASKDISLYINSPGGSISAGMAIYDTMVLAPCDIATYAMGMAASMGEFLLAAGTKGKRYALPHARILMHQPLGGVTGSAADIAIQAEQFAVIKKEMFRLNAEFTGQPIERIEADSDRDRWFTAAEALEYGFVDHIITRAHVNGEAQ
ClpC1-NTD substrate, M. tuberculosis ClpC1P1P2, sequence (P9WPC9 whole entry): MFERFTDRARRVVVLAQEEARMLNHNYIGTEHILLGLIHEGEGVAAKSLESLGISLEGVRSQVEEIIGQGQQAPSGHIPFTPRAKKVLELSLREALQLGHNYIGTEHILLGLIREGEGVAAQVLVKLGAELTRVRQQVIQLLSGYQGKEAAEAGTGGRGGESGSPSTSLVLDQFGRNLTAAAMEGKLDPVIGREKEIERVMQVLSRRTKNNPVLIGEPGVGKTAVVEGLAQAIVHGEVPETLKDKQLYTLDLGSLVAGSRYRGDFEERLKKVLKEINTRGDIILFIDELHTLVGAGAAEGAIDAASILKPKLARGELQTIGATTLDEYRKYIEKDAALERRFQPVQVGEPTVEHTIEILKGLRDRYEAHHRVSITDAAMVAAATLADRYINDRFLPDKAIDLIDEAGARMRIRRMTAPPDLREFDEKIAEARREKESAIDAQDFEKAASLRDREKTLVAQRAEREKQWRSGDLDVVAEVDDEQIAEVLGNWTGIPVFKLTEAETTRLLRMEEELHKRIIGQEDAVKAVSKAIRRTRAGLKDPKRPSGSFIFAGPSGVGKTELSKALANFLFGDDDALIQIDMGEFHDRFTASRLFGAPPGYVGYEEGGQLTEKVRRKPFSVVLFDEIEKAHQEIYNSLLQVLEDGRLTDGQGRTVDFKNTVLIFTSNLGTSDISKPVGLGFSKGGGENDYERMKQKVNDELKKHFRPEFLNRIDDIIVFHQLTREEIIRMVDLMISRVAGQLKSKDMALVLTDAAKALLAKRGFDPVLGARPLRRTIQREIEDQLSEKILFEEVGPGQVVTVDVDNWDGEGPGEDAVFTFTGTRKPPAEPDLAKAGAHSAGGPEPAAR
ClpC1-NTD substrate, M. tuberculosis ClpC1P1P2, sequence (P9WPC3 whole entry, further chain): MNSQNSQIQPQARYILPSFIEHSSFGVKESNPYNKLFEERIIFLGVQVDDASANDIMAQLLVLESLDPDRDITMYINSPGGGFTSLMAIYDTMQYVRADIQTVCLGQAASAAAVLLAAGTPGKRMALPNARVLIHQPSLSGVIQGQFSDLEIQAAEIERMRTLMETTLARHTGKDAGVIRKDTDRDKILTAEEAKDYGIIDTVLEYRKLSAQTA

[3] = system: Mycobacterium intracellulare; experiment: microbe, parasite or virus in culture; assay type: cell-based
[4] = target: His6-tagged ClpC1-NTD substrate, M. smegmatis ClpC1P1P2 (UniProt A0R574+P9WPC9); experiment: biochemical; assay type: biochemical; conditions: for % Response: ClpC1-NTD/ClpP1P2 peak area normalized to DMSO, well replicates; for DC50: Msm
His6-tagged ClpC1-NTD substrate, M. smegmatis ClpC1P1P2, sequence (P9WPC9 1-156, looked up, natural form): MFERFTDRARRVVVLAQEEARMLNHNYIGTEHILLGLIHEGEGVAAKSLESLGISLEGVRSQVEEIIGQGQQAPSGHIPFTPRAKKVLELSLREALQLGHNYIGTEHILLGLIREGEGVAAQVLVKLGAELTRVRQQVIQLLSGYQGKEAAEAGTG
His6-tagged ClpC1-NTD substrate, M. smegmatis ClpC1P1P2, sequence (A0R574 whole entry): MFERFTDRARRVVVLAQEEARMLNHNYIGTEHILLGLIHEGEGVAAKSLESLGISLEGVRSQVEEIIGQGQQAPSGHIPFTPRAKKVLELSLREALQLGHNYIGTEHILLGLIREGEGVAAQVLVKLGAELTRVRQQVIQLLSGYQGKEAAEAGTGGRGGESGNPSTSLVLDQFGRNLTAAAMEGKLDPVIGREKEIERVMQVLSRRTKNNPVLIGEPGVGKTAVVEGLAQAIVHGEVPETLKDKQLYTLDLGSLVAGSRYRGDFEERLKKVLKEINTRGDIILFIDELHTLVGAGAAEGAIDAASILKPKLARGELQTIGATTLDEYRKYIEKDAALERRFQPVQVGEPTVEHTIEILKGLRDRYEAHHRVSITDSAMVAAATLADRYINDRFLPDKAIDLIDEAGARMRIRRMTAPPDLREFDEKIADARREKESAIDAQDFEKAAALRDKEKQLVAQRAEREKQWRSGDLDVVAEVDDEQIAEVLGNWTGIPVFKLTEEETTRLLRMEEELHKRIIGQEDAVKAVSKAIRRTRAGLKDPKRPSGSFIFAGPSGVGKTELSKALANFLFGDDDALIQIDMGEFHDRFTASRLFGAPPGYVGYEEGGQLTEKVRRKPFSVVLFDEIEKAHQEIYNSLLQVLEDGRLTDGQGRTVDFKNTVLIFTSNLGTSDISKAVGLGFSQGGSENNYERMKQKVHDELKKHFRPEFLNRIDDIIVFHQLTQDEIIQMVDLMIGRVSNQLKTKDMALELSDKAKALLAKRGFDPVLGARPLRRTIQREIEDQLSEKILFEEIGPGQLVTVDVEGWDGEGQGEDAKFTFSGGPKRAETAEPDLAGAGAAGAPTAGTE

Mycobacterium avium = experiment: microbe, parasite or virus in culture; assay type: cell-based
Mtb H37Rv = experiment: Minimum bactericidal concentration (MBC), Mtb H37Rv; assay type: cell-based, Mycobacterium tuberculosis; conditions: Mycobacterium tuberculosis, H37RV
Mtb ATCC 35825 = experiment: microbe, parasite or virus in culture; assay type: cell-based
Mtb # 8673 = experiment: microbe, parasite or virus in culture; assay type: cell-based
[5] = assay type: in vitro ADME, Rat
Method in brief: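 Compound (1 µmol/l) was incubated at 37 °C with 0.5 mg/ml liver microsomes in 100 mM Tris-HCl pH 7.5, 6.5 mM MgCl2 and 1 mM NADPH. Reactions were quenched with acetonitrile at several time points and parent remaining quantified by HPLC-MS/MS; first-order half-lives were converted to clearance as %Qh via the well-stirred model.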

[6] = mean of the measurements, read-out: DC50, Mean
[7] = Experiment 2, three replicate columns

C#CC[C@@H]1NC(=O)[C@H](CC(C)C)N(C)C(=O)[C@H](C(C)C)NC(=O)[C@H]([C@H](OC)c2ccccc2)NC(=O)[C@H](C)NC(=O)[C@H](C[C@@H](C)CO)N(C)C(=O)[C@H](Cc2cn(C)c3ccccc23)NC1=O [Compound 10] (cyclo(A[Phe(βR-OMe)]V[NMeL][Pra][Trp(1-Me)][NMeLeu(5-OH,4R)]))
Supplementary Figure 2 dose-response value, starvation-induced non-replicating H37Rv cells ([1]; Conc. 0.0488281 µM): 91.338 and 78.4072 and 99.8789
Supplementary Figure 2 dose-response value, starvation-induced non-replicating H37Rv cells ([1]; Conc. 0.0976562 µM): 83.6098 and 87.8245 and 85.6175
Supplementary Figure 2 dose-response value, starvation-induced non-replicating H37Rv cells ([1]; Conc. 0.195312 µM): 83.554 and 88.4379 and 86.5417
Supplementary Figure 2 dose-response value, starvation-induced non-replicating H37Rv cells ([1]; Conc. 0.390625 µM): 81.2435 and 84.4384 and 85.1554
Supplementary Figure 2 dose-response value, starvation-induced non-replicating H37Rv cells ([1]; Conc. 0.78125 µM): 80.3114 and 85.7211 and 82.4466
Supplementary Figure 2 dose-response value, starvation-induced non-replicating H37Rv cells ([1]; Conc. 1.5625 µM): 81.8012 and 82.096 and 79.8971
Supplementary Figure 2 dose-response value, starvation-induced non-replicating H37Rv cells ([1]; Conc. 3.125 µM): 77.0129 and 81.0842 and 77.6981
Supplementary Figure 2 dose-response value, starvation-induced non-replicating H37Rv cells ([1]; Conc. 6.25 µM): 66.8627 and 77.4193 and 82.598
Supplementary Figure 2 dose-response value, starvation-induced non-replicating H37Rv cells ([1]; Conc. 25 µM): 73.1408 and 72.615 and 70.6073
Supplementary Figure 2 dose-response value, starvation-induced non-replicating H37Rv cells ([1]; Conc. 50 µM): 65.1656 and 61.5724 and 59.0468
Supplementary Figure 2 dose-response value, starvation-induced non-replicating H37Rv cells ([1]; Conc. 100 µM): 53.5574 and 51.9958 and 57.3099
DC50 ([2]; Measurement 1-4, read-out: DC50, single measurements): > 100 µM
DC50 [2, 6]: > 100 µM
MIC ([3]; Experiment 1, read-out: MIC Mycobacterium intracellulare): 12.5 µM
MIC (µg/ml) Mycobacterium intracellulare [3, 7]: 11.41 µg/mL (≈ 12.5 µM)
MIC ([3]; Experiment 2, three replicate columns, read-out: MIC (µM) Mycobacterium intracellulare): 12.5 µM
MIC ([3]; Mycobacterium intracellulare, Experiment 1, read-out: MIC Mycobacterium intracellulare): 11.4 µg/mL
MIC ([3]; Mycobacterium intracellulare, Experiment 2, three replicate columns, read-out: MIC (µM) Mycobacterium intracellulare): 12.5 µM
MIC ([3]; Mycobacterium intracellulare, Experiment 2, three replicate columns, read-out: MIC (µg/ml) Mycobacterium intracellulare): 11.4 µg/mL
MIC ([3]; Mycobacterium intracellulare, mean ± SD, read-out: MIC Mycobacterium intracellulare): 12.5 µM
% Response ([4]; 0.4 µM): 107.165% and 105.713% and 105.534% and 109.793% and 112.635% and 106.598% and 107.262% and 106.323% and 113.228%
% Response ([4]; 33.3 µM): 86.4131% and 86.1435% and 98.0091% and 93.8962% and 86.1584% and 100.044% and 99.6955% and 103.875% and 103.346%
% Response ([4]; 100.0 µM): 86.569% and 107.836% and 89.4261% and 92.9238% and 99.5573% and 96.5131% and 88.7968% and 92.196% and 104.007%
DC50 ([4]; Measurement 1-6, read-out: DC50, single measurements): > 100 µM
DC50 [4, 6]: > 100 µM
degradation of the His6-tagged ClpC1-NTD substrate ([4]; cell-free, result in words): did not cause any degradation
MIC (Mycobacterium avium; Experiment 1, read-out: MIC Mycobacterium avium): 12.5 µM
MIC (µg/ml) Mycobacterium avium (Mycobacterium avium; [7]): 11.41 µg/mL (≈ 12.5 µM)
MIC (Mycobacterium avium; Experiment 2, three replicate columns, read-out: MIC (µM) Mycobacterium avium): 12.5 µM
MIC (Mycobacterium avium; Mycobacterium avium, Experiment 1, read-out: MIC Mycobacterium avium): 11.4 µg/mL
MIC (Mycobacterium avium; Mycobacterium avium, Experiment 2, three replicate columns, read-out: MIC (µM) Mycobacterium avium): 12.5 µM
MIC (Mycobacterium avium; Mycobacterium avium, Experiment 2, three replicate columns, read-out: MIC (µg/ml) Mycobacterium avium): 11.4 µg/mL
MIC (Mycobacterium avium; Mycobacterium avium, mean ± SD, read-out: MIC Mycobacterium avium): 12.5 µM
MBC (Mtb H37Rv; read-out: MBC (from Set 3) Mtb H37Rv): 12.5 µM and 11.4 µg/mL
MBC (Mtb H37Rv; individual example, read-out: MBC Mtb H37Rv): 12.5 µM and 11.4 µg/mL
MIC (Mtb ATCC 35825; Mycobacterium tuberculosis, ATCC35825, mean, n = 2 well replicates): 0.4 µM and 0.4 µg/mL
MIC (Mtb ATCC 35825; Mycobacterium tuberculosis, ATCC35825, single well replicates): 0.36 µg/mL and 0.39 µM
MIC (Mtb ATCC 35825; single well replicates): 0.39 µM (≈ 0.356 µg/mL)
MIC Mtb ATCC 35825 (Mtb ATCC 35825; single well replicates): 0.36 µg/mL (≈ 0.394 µM)
MIC (Mtb # 8673; Mycobacterium tuberculosis, mean, n = 2 well replicates): 0.4 µM and 0.4 µg/mL
MIC (Mtb # 8673; Mycobacterium tuberculosis, single well replicates): 0.39 µM and 0.36 µg/mL
MIC (Mtb # 8673; single well replicates): 0.39 µM (≈ 0.356 µg/mL)
MIC Mtb # 8673 (Mtb # 8673; single well replicates): 0.36 µg/mL (≈ 0.394 µM)
Microsomal Stability Rat QH ([5]; Rat): 84.600%
Microsomal Stability Rat ([5]; clearance in microsomes): 85 %Qh
